Values quoted from earlier work in patent US8986529B2, “Isotachophoresis having interacting anionic and cationic shock waves” (The Board of Trustees of the Leland Stanford Junior …, priority 2010, dated 2015).
Where two headings read alike, the source gives them in different places.

Columns and labels:
[1] = for pKa: text b64: pKa,TE− of Tricine, pKa,LE+ of Imidazole, pKa,TE+ of Arginine
[2] = Table 2, acid dissociation constant of the cation, bidirectional cascade ITP buffers
[3] = Table 1, fully-ionized (absolute) mobility of the +1 cation, cationic LE+/TE+ candidates for focusing to separation mode
[4] = Table 2, absolute mobility of the cation, cationic LE+/TE+ candidates for bidirectional cascade ITP
[5] = Table 1, cationic LE+/TE+ candidates for focusing to separation mode

Row | SMILES | pKa,+1 [1, 2] | μ+1 [3] | μ+1 [4] | pKa,+1 [1, 5] | pKa [1]
1 | Cc1ccccn1 [2-methyl pyridine] | 6.2 | 40.1 ×10^−9 m^2V^−1s^−1 | 40.1 ×10^−9 m^2V^−1s^−1 | – | –
2 | c1c[nH]cn1 [Imidazole] | 7.15 | 52 ×10^−9 m^2V^−1s^−1 | 52 ×10^−9 m^2V^−1s^−1 | 7.15 | 7.15
3 | Cc1ccncc1 [4-methyl pyridine] | – | – | 40.1 ×10^−9 m^2V^−1s^−1 | – | –
4 | CC(N)(CO)CO [Amediol] | – | 33.5 ×10^−9 m^2V^−1s^−1 | – | – | –
5 | N=C(N)NCCC[C@H](N)C(=O)O [Arginine] | – | 26.9 ×10^−9 m^2V^−1s^−1 | – | 8.92 | 8.92
6 | NC(CO)(CO)CO [Tris] | – | 29.5 ×10^−9 m^2V^−1s^−1 | 29.5 ×10^−9 m^2V^−1s^−1 | – | –
7 | c1ccncc1 [Pyridine] | – | – | 30 ×10^−9 m^2V^−1s^−1 | – | –
8 | OCCN(CCO)C(CO)(CO)CO [Bistris] | – | – | 26 ×10^−9 m^2V^−1s^−1 | – | –
9 | Cc1cccnc1 [3-methyl pyridine] | – | 40.1 ×10^−9 m^2V^−1s^−1 | – | 5.5 | –
